{"source": "ChEMBL document CHEMBL1201862", "about": "“PubChem BioAssay data set” (2004)", "assay_in_all_cases": "NCI tumour cell line growth inhibition, 48 h", "key": {"786-0": {"tested_on": "786-0"}, "A498": {"tested_on": "A498"}, "A549": {"tested_on": "A549"}, "CAKI-1": {"tested_on": "CAKI-1"}, "CCRF-CEM": {"tested_on": "CCRF-CEM"}, "COLO 205": {"tested_on": "COLO 205"}, "DLD-1": {"tested_on": "DLD-1"}, "DMS-114": {"tested_on": "DMS-114"}, "EKVX": {"tested_on": "EKVX"}, "HCC 2998": {"tested_on": "HCC 2998"}, "HCT-116": {"tested_on": "HCT-116"}, "HCT-15": {"tested_on": "HCT-15"}, "HL-60": {"tested_on": "HL-60"}, "HOP-18": {"tested_on": "HOP-18"}, "HOP-62": {"tested_on": "HOP-62"}, "HOP-92": {"tested_on": "HOP-92"}, "HT-29": {"tested_on": "HT-29"}, "IGROV-1": {"tested_on": "IGROV-1"}, "K562": {"tested_on": "K562"}, "KM-20L2": {"tested_on": "KM-20L2"}, "KM12": {"tested_on": "KM12"}, "LOX IMVI": {"tested_on": "LOX IMVI"}, "LXFL 529": {"tested_on": "LXFL 529"}, "M14": {"tested_on": "M14"}, "M19-MEL": {"tested_on": "M19-MEL"}, "Malme-3M": {"tested_on": "Malme-3M"}, "NCI-H226": {"tested_on": "NCI-H226"}, "NCI-H23": {"tested_on": "NCI-H23"}, "NCI-H460": {"tested_on": "NCI-H460"}, "NCI-H522": {"tested_on": "NCI-H522"}, "OVCAR-3": {"tested_on": "OVCAR-3"}, "OVCAR-4": {"tested_on": "OVCAR-4"}, "OVCAR-5": {"tested_on": "OVCAR-5"}, "OVCAR-8": {"tested_on": "OVCAR-8"}, "RXF 393": {"tested_on": "RXF 393"}, "SF-268": {"tested_on": "SF-268"}, "SF-295": {"tested_on": "SF-295"}, "SF-539": {"tested_on": "SF-539"}, "SK-MEL-28": {"tested_on": "SK-MEL-28"}, "SK-MEL-2": {"tested_on": "SK-MEL-2"}, "SK-MEL-5": {"tested_on": "SK-MEL-5"}, "SK-OV-3": {"tested_on": "SK-OV-3"}, "SN12C": {"tested_on": "SN12C"}, "SNB-19": {"tested_on": "SNB-19"}, "SNB-75": {"tested_on": "SNB-75"}, "SNB-78": {"tested_on": "SNB-78"}, "SW-620": {"tested_on": "SW-620"}, "TK-10": {"tested_on": "TK-10"}, "U-251": {"tested_on": "U-251"}, "UACC-257": {"tested_on": "UACC-257"}, "UACC-62": {"tested_on": "UACC-62"}, "UO-31": {"tested_on": "UO-31"}, "XF498": {"tested_on": "XF498"}}, "note": "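A five-concentration, 48-hour dose response in 96-well plates underlies each endpoint, interpolated linearly between surrounding concentrations. GI50: concentration for 50% inhibition of growth.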 Active and inactive are the calls of the source. Rule as the data show it: active = GI50 up to about 1.1 µM and inactive = higher."}
{"smiles": "N#CC(C(=O)Nc1ccccc1)C1=C(Cl)C(=O)c2ccccc2C1=O", "note": "(stereo not drawn)", "values": [{"measurement": "GI50", "setting": "786-0", "value": "14.6 µM (inactive)"}, {"measurement": "GI50", "setting": "A498", "value": "47.1 µM (inactive)"}, {"measurement": "GI50", "setting": "A549", "value": "19.6 µM (inactive)"}, {"measurement": "GI50", "setting": "CAKI-1", "value": "18 µM (inactive)"}, {"measurement": "GI50", "setting": "CCRF-CEM", "value": "7.59 µM (inactive)"}, {"measurement": "GI50", "setting": "COLO 205", "value": "17.5 µM (inactive)"}, {"measurement": "GI50", "setting": "DLD-1", "value": "17.1 µM (inactive)"}, {"measurement": "GI50", "setting": "DMS-114", "value": "17.8 µM (inactive)"}, {"measurement": "GI50", "setting": "EKVX", "value": "17.5 µM (inactive)"}, {"measurement": "GI50", "setting": "HCC 2998", "value": "18.1 µM (inactive)"}, {"measurement": "GI50", "setting": "HCT-116", "value": "14.2 µM (inactive)"}, {"measurement": "GI50", "setting": "HCT-15", "value": 18.5, "unit": "µM"}, {"measurement": "GI50", "setting": "HL-60", "value": "4.23 µM (inactive)"}, {"measurement": "GI50", "setting": "HOP-18", "value": "10.7 µM (inactive)"}, {"measurement": "GI50", "setting": "HOP-62", "value": "17.9 µM (inactive)"}, {"measurement": "GI50", "setting": "HOP-92", "value": "14.3 µM (inactive)"}, {"measurement": "GI50", "setting": "HT-29", "value": "26 µM (inactive)"}, {"measurement": "GI50", "setting": "IGROV-1", "value": "17.9 µM (inactive)"}, {"measurement": "GI50", "setting": "K562", "value": "13.6 µM (inactive)"}, {"measurement": "GI50", "setting": "KM-20L2", "value": "23 µM (inactive)"}, {"measurement": "GI50", "setting": "KM12", "value": "21.5 µM (inactive)"}, {"measurement": "GI50", "setting": "LOX IMVI", "value": "15.7 µM (inactive)"}, {"measurement": "GI50", "setting": "LXFL 529", "value": "19.9 µM (inactive)"}, {"measurement": "GI50", "setting": "M14", "value": "16.5 µM (inactive)"}, {"measurement": "GI50", "setting": "M19-MEL", "value": "7.66 µM (inactive)"}, {"measurement": "GI50", "setting": "Malme-3M", "value": "13.8 µM (inactive)"}, {"measurement": "GI50", "setting": "NCI-H226", "value": "17 µM (inactive)"}, {"measurement": "GI50", "setting": "NCI-H23", "value": "18.5 µM (inactive)"}, {"measurement": "GI50", "setting": "NCI-H460", "value": "33.9 µM (inactive)"}, {"measurement": "GI50", "setting": "NCI-H522", "value": "15.5 µM (inactive)"}, {"measurement": "GI50", "setting": "OVCAR-3", "value": "15.6 µM (inactive)"}, {"measurement": "GI50", "setting": "OVCAR-4", "value": "16.9 µM (inactive)"}, {"measurement": "GI50", "setting": "OVCAR-5", "value": "17.6 µM (inactive)"}, {"measurement": "GI50", "setting": "OVCAR-8", "value": "18.9 µM (inactive)"}, {"measurement": "GI50", "setting": "RXF 393", "value": "17.6 µM (inactive)"}, {"measurement": "GI50", "setting": "SF-268", "value": "15.7 µM (inactive)"}, {"measurement": "GI50", "setting": "SF-295", "value": "17.9 µM (inactive)"}, {"measurement": "GI50", "setting": "SF-539", "value": "15.2 µM (inactive)"}, {"measurement": "GI50", "setting": "SK-MEL-28", "value": "17.1 µM (inactive)"}, {"measurement": "GI50", "setting": "SK-MEL-2", "value": "16.3 µM (inactive)"}, {"measurement": "GI50", "setting": "SK-MEL-5", "value": "16.1 µM (inactive)"}, {"measurement": "GI50", "setting": "SK-OV-3", "value": "23.9 µM (inactive)"}, {"measurement": "GI50", "setting": "SN12C", "value": "15.7 µM (inactive)"}, {"measurement": "GI50", "setting": "SNB-19", "value": "17.7 µM (inactive)"}, {"measurement": "GI50", "setting": "SNB-75", "value": "> 10 µM (inactive)"}, {"measurement": "GI50", "setting": "SNB-78", "value": "20.1 µM (inactive)"}, {"measurement": "GI50", "setting": "SW-620", "value": "20.6 µM (inactive)"}, {"measurement": "GI50", "setting": "TK-10", "value": "21.7 µM (inactive)"}, {"measurement": "GI50", "setting": "U-251", "value": "27.2 µM (inactive)"}, {"measurement": "GI50", "setting": "UACC-257", "value": "2.05 µM (inactive)"}, {"measurement": "GI50", "setting": "UACC-62", "value": "16.8 µM (inactive)"}, {"measurement": "GI50", "setting": "UO-31", "value": "13.9 µM (inactive)"}, {"measurement": "GI50", "setting": "XF498", "value": "16.7 µM (inactive)"}]}
